Laboratory results reported in patent US20050148069A1, “IGF-1 instructs multipotent adult CNS neural stem cells to an oligodendroglial lineage” (priority 2003, published 2005).

Experiments:
[1] = test system: adult hippocampus-derived neural progenitor cells; experiment: cell death by live staining with propidium iodide and Hoechst 33342; assay type: cell-based, rat; conditions: 500 ng/ml IGF-I
Experimental: We first directly measured the effect of IGF-I on cell survival. We asked whether a selective decrease in the death of oligodendrocytes (and/or oligodendrocyte progenitors) could explain the net increase in number of oligodendrocytes (defined by the expression of RIP, a marker of both immature and mature oligodendrocytes). […] To quantify cell death of the progeny of neural progenitor cells, living cultures were stained with propidium iodide (1 μg/ml), which stains dead cells, and Hoechst 33342 (1 μg/ml), which stains live and dead cells. Staining of live, rather than fixed, cultures was used to avoid underestimating cell death due to possible detachment of dying and/or dead cells from culture substrates. […]
Cells were fixed with 4% paraformaldehyde, followed by immunocytochemical staining as described (Palmer et al., 1999). […] Quantification of cell phenotypes was with StereoInvestigator (MicroBrightfield Inc.); for each marker, 500-1000 cells were sampled systematically from standardized fields at 40×magnification. For quantification of live/dead cells, images were taken of cultures live-stained with propidum iodide (1 μg/ml; Molecular Probes) and Hoescht 33342 (1 μg/ml; Sigma) at 10×magnification, and cells were counted using Image-Pro (Media Cybernetics). […]

[2] = test system: adult hippocampus-derived neural progenitor cells; experiment: in vitro differentiation analysis of neural progenitor cells (immunocytochemistry for lineage markers); assay type: cell-based, rat
Experimental: The neural progenitor cells isolated from the hippocampus of female Fischer 344 used in this study have been characterized previously (Gage et al., 1995; Palmer et al., 1997). The whole brain-derived neural stem cells from PIO ICR mice were isolated and cultured according to the methods as described, with slight modifications. Cells were cultured as previously described (Gage et al., 1995; Ray et al., 1993). Cells between passages 10 and 20 were used for in vitro differentiation analyses. To induce differentiation, cells were plated into 4-well chamber slides at a density of 55,000-75,000 cells per well and were allowed to proliferate in N2-supplemented (Invitrogen) DMEM:F12 (Omega Scientific) medium containing 20 ng/ml FGF-2 (PeproTech, Inc.) for 24 hours. FGF-2 was then withdrawn and cells were subsequently treated with differentiation media. […] For IGF-induction experiments, cells were trypsinized, washed with 1× PBS, and plated into insulin-free N2 medium. […] In some cultures, BrdU (2.5 μM, Sigma) was added to label dividing cells, and Q-VD-OPh (2 μM, Enzyme Systems Products) was added to prevent apoptosis.
Cells were fixed with 4% paraformaldehyde, followed by immunocytochemical staining as described (Palmer et al., 1999). Labeled cells were visualized using a Nikon E800 upright microscope or a Nikon E600 inverted microscope (Nikon Inc.) and a Spot RT CCD camera (Diagnostic Instruments Inc.). 4′,6-diamidino-2-phenylindole (DAPI) was used to identify individual cells. Quantification of cell phenotypes was with StereoInvestigator (MicroBrightfield Inc.); for each marker, 500-1000 cells were sampled systematically from standardized fields at 40×magnification. For quantification of live/dead cells, images were taken of cultures live-stained with propidum iodide (1 μg/ml; Molecular Probes) and Hoescht 33342 (1 μg/ml; Sigma) at 10×magnification, and cells were counted using Image-Pro (Media Cybernetics). The following primary antibodies were used: rabbit anti-Tuj1 (1:7500;Covance), mouse anti-RIP (1:25-1:75; Hybridoma Bank); guinea pig anti-GFAP (1:500-1:2500; Advanced Immunochemical, Inc.); rabbit anti-MBP (1:500; Chemicon International Inc.), rat anti-BrdU (1:400; Accurate). Secondary antibodies were all from Jackson ImmunoResearch and used at 1:250 dilution. The detection of BrdU in cultured cells required treatment in 2 N HCL at 37° C. for 30 min (Palmer et al., 1999). All experiments were independently replicated at least 3 times.

[3] = test system: oligodendrocytes in the hilus of the adult rat hippocampus; experiment: IGF-I overexpression in vivo in the hippocampus (hilus), immunohistochemistry; conditions: 4 weeks after injection
Experimental: cDNA encoding the human IGF-I gene was cloned into a recombinant AAV vector and the virus was prepared as previously described (Kaspar et al., 2002). Expression of IGF-I and {overscore (β)}gal (control AAV) was first confirmed in human embryonic kidney (HEK-293) cells by RT-PCR and Western analysis and subsequently in the hippocampus by RT-PCR analysis (unpublished data). Recombinant AAV-IGF-I (rAAV-IGF-I) or AAV-{overscore (β)}gal (rAAV-{overscore (β)}gal) was stereotaxically injected into the hippocampus (anteroposterior axis, −4.0 mm; mediolateral axis, +2.0 mm; dorsoventral axis, −3.0 from skull, with nose bar at 3.3 mm up) of anesthetized female Fischer-344 rats (150-175 g; n=6). […]
All comparative analyses were focused on the hilus of the injected side on matched hippocampal sections. For RIP or MBP staining, immunofluorescence average pixel intensity of equivalent sized fields (4 from each animal) in control and experimental groups was determined from digital images using Adobe Photoshop. To quantify the number of oligodendrocytes, sections were immunostained with GST-π. Only immunolabeled cells with a clear DAPI-positive nucleus were scored. For quantification of GST-π cells, area counts of the hilus within the dentate gyrus of the hippocampus were performed. […] The results are expressed as the average number of cells per section.

IGF-I: human recombinant IGF-I (R&D Systems), growth factor polypeptide
percentage of dead/dying cells ([1]; every 12 hours up to 48 h): relatively small percentage of dead/dying cells | change in the percentage of cells that died between time points ([1]; one-way ANOVA): no significant change | RIP+ cells ([2]; 500 ng/ml IGF-1 added to Q-VD-OPh-treated 2-day cultures): large increase in RIP+ cells | total cells positive for myelin basic protein (MBP) ([2]; 500 ng/ml IGF-I, 4-day time point): Approximately 23% | overall number of RIP+ cells over time ([2]; 500 ng/ml IGF-I, 12 h to 48 h): progressive increase in the overall number of RIP+ cells over time | percentage of RIP+ cells ([2]; 500 ng/ml, 4 days, insulin-free N2 medium): 45-55% | dose dependence of oligodendrocyte differentiation ([2]; 20-500 ng/ml, 4-day cultures): occurred in a dose-dependent manner | percentage of Tuj1-positive cells across tested concentrations ([2]; 20-500 ng/ml, 4-day cultures): did not appear to change | rank order of potency for oligodendrocyte differentiation ([2]; different concentrations (20-1000 ng/ml)): IGF-I>IGF-II>insulin | GFAP+ astrocytes ([2]; each at 500 ng/ml, 4 days): few to no GFAP+ astrocytes | oligodendrocyte-promoting effects in other rat lines ([2]; independently derived rat hippocampus progenitor cell line and clonally derived line (unpublished data)): confirmed | GFAP staining vs control animals [3]: no observable difference in GFAP staining
